Assay results reported in the NIST ThermoML archive (doi:10.1016/j.jct.2007.05.004).
± gives the expanded uncertainty stated by the source.

Experiment: xn = mol fraction of the nth substance listed
Conditions: 101 kPa, Liquid

COC(C)=O [methyl ethanoate] + CO
Conditions	mass density, 293.15 K [kg/m3]	mass density, 298.15 K [kg/m3]	mass density, 303.15 K [kg/m3]	viscosity, 293.15 K [mPa·s]	viscosity, 298.15 K [mPa·s]	viscosity, 303.15 K [mPa·s]
x2 = 0	933.56 ± 0.4	926.98 ± 0.41	920.34 ± 0.42	0.386 ± 0.006	0.367 ± 0.006	0.348 ± 0.006
x2 = 0.0471	930.26 ± 0.4	923.71 ± 0.4	917.1 ± 0.41	0.378 ± 0.006	0.359 ± 0.006	0.341 ± 0.006
x2 = 0.0982	926.48 ± 0.39	919.95 ± 0.4	913.37 ± 0.4	0.378 ± 0.006	0.361 ± 0.006	0.342 ± 0.006
x2 = 0.1983	918.39 ± 0.37	911.96 ± 0.38	905.46 ± 0.39	0.379 ± 0.006	0.366 ± 0.006	0.348 ± 0.006
x2 = 0.2912	909.97 ± 0.37	903.65 ± 0.37	897.26 ± 0.38	0.382 ± 0.006	0.364 ± 0.006	0.347 ± 0.006
x2 = 0.4015	898.52 ± 0.36	892.35 ± 0.37	886.12 ± 0.38	0.394 ± 0.006	0.37 ± 0.006	0.351 ± 0.006
x2 = 0.5006	886.79 ± 0.37	880.78 ± 0.37	874.71 ± 0.38	0.404 ± 0.006	0.382 ± 0.006	0.36 ± 0.006
x2 = 0.5878	875.07 ± 0.37	869.25 ± 0.38	863.35 ± 0.39	0.416 ± 0.006	0.392 ± 0.006	0.371 ± 0.006
x2 = 0.7017	857.33 ± 0.38	851.73 ± 0.39	846.09 ± 0.4	0.442 ± 0.007	0.416 ± 0.006	0.393 ± 0.006
x2 = 0.8015	838.91 ± 0.4	833.57 ± 0.41	828.19 ± 0.42	0.472 ± 0.007	0.443 ± 0.007	0.417 ± 0.006
x2 = 0.9008	817.51 ± 0.42	812.45 ± 0.43	807.37 ± 0.44	0.521 ± 0.007	0.486 ± 0.007	0.455 ± 0.007
x2 = 0.9504	805.16 ± 0.44	800.29 ± 0.45	795.38 ± 0.45	0.551 ± 0.008	0.516 ± 0.007	0.483 ± 0.007

CO [methanol] + CCOC(C)=O
x1 = 1
Conditions	mass density [kg/m3]	viscosity [mPa·s]
293.15 K	791.9 ± 0.46	0.585 ± 0.008
298.15 K	787.2 ± 0.46	0.545 ± 0.008
303.15 K	782.48 ± 0.47	0.508 ± 0.007

CO [methanol] + O
Conditions	mass density, 293.15 K [kg/m3]	mass density, 298.15 K [kg/m3]	mass density, 303.15 K [kg/m3]	viscosity, 293.15 K [mPa·s]	viscosity, 298.15 K [mPa·s]	viscosity, 303.15 K [mPa·s]
x2 = 0	791.9 ± 0.46	787.2 ± 0.46	782.48 ± 0.47	0.585 ± 0.008	0.545 ± 0.008	0.508 ± 0.007
x2 = 0.049	800.06 ± 0.44	795.47 ± 0.45	790.84 ± 0.46	0.655 ± 0.009	0.607 ± 0.008	0.563 ± 0.008
x2 = 0.0993	808.62 ± 0.43	804.11 ± 0.44	799.56 ± 0.44	0.735 ± 0.01	0.677 ± 0.009	0.627 ± 0.009
x2 = 0.1973	826.11 ± 0.4	821.73 ± 0.41	817.31 ± 0.42	0.9 ± 0.012	0.821 ± 0.011	0.751 ± 0.01
x2 = 0.2983	845.03 ± 0.38	840.79 ± 0.38	836.5 ± 0.39	1.086 ± 0.014	0.987 ± 0.013	0.889 ± 0.012
x2 = 0.3985	864.67 ± 0.35	860.59 ± 0.36	856.45 ± 0.36	1.287 ± 0.016	1.15 ± 0.015	1.032 ± 0.014
x2 = 0.5003	885.57 ± 0.33	881.69 ± 0.33	877.32 ± 0.34	1.481 ± 0.019	1.309 ± 0.017	1.164 ± 0.015
x2 = 0.5994	906.58 ± 0.29	902.96 ± 0.29	899.26 ± 0.3	1.673 ± 0.021	1.463 ± 0.019	1.289 ± 0.017
x2 = 0.6997	928.45 ± 0.25	925.21 ± 0.25	921.89 ± 0.26	1.793 ± 0.022	1.554 ± 0.02	1.342 ± 0.018
x2 = 0.7986	949.8 ± 0.21	947.17 ± 0.22	944.42 ± 0.22	1.789 ± 0.022	1.542 ± 0.02	1.342 ± 0.019
x2 = 0.8999	971.59 ± 0.17	969.84 ± 0.18	967.9 ± 0.18	1.522 ± 0.019	1.317 ± 0.017	1.147 ± 0.016
x2 = 0.9512	983.86 ± 0.15	982.53 ± 0.15	980.97 ± 0.16	1.274 ± 0.016	1.121 ± 0.015	0.996 ± 0.014

CCO [ethanol] + O
Conditions	mass density, 293.15 K [kg/m3]	mass density, 298.15 K [kg/m3]	mass density, 303.15 K [kg/m3]	viscosity, 293.15 K [mPa·s]	viscosity, 298.15 K [mPa·s]	viscosity, 303.15 K [mPa·s]
x2 = 0	789.75 ± 0.46	785.46 ± 0.47	781.15 ± 0.47	1.187 ± 0.015	1.082 ± 0.014	0.987 ± 0.013
x2 = 0.0501	795.99 ± 0.45	791.68 ± 0.46	787.35 ± 0.46	1.277 ± 0.016	1.153 ± 0.015	1.046 ± 0.014
x2 = 0.0986	802.09 ± 0.44	797.77 ± 0.45	793.41 ± 0.45	1.371 ± 0.017	1.232 ± 0.016	1.111 ± 0.014
x2 = 0.1961	814.88 ± 0.42	810.54 ± 0.43	806.14 ± 0.43	1.549 ± 0.019	1.38 ± 0.018	1.237 ± 0.016
x2 = 0.2961	829.05 ± 0.4	824.7 ± 0.41	820.29 ± 0.41	1.735 ± 0.022	1.531 ± 0.02	1.357 ± 0.017
x2 = 0.3991	845.25 ± 0.38	840.94 ± 0.39	836.55 ± 0.39	1.975 ± 0.026	1.659 ± 0.022	1.515 ± 0.019
x2 = 0.4971	862.82 ± 0.36	–	–	2.225 ± 0.028	–	–
x2 = 0.5989	884.07 ± 0.33	879.89 ± 0.33	875.63 ± 0.33	2.479 ± 0.032	2.115 ± 0.028	1.821 ± 0.024
x2 = 0.6991	908.69 ± 0.28	904.65 ± 0.29	900.55 ± 0.29	2.705 ± 0.034	2.275 ± 0.03	1.941 ± 0.027
x2 = 0.8001	937.33 ± 0.23	933.65 ± 0.24	929.9 ± 0.25	2.7 ± 0.032	2.3 ± 0.03	1.937 ± 0.03
x2 = 0.8996	965.71 ± 0.18	963.24 ± 0.19	960.61 ± 0.19	2.223 ± 0.027	1.86 ± 0.025	1.58 ± 0.024
x2 = 0.9499	979.28 ± 0.16	977.72 ± 0.16	975.93 ± 0.16	1.63 ± 0.021	1.388 ± 0.019	1.207 ± 0.017
